Results as given in patent US9072676B2, “Cyclohexyl carbamate compounds as skin and/or hair lightening actives” (SYMRISE AG, priority 2010, dated 2015).
Where two headings read alike, the source gives them in different places.

Legend:
[1] = system: B16V mouse melanoma cells; assay: Depigmenting effect on melanoma cell cultures (inhibition of pigmentation); format: cell-based; settings: read-out: IC50 (concentration at which pigmentation is inhibited by 50%)
Procedure: B16V mouse melanoma cells are disseminated in a 96-well microtitre plate in a concentration of 5×10^3 cells/well. After cultivation for 24 h at 37° C. and 5% CO2 in RPMI medium, enriched with 10% foetal calf serum, various concentrations of the test substances and 0.3 mM tyrosine and 10 nM α-MSH (α-melanocyte stimulating hormone) are added and incubated for a further 96 h. The maximum concentration of the test substances used corresponds to 0.1 times the value of the IC20 value of the cytotoxicity assay. Standards are incubated with kojic acid in concentrations of 0.01 mM, 0.1 mM and 1 mM in addition to tyrosine and α-MSH. Only tyrosine and α-MSH are added to the controls. After incubation, sodium lauryl sulfate and sodium hydroxide solution (final concentrations: 1 mM and 1 M respectively) are added to the culture medium and the absorption (A) is measured after 3 h at 400 nm.
The inhibition of pigmentation in the presence of the test compounds or kojic acid was calculated using the following equation: Inhibition of pigmentation (%)=100−[(Atest compound/Acontrol)×100] wherein
Atest compound=absorption of the wells with test substance and with cells
Acontrol=absorption of the wells without test substance, but with cells
From the inhibition of pigmentation (%) in a series of dilutions of test compounds, the IC50 for each test compound is calculated. This is the concentration of a test compound at which pigmentation is inhibited by 50%.

Pigmented pig skin = assay: Depigmenting effect on ex vivo skin (melanin granules, Fontana-Masson stain, image analysis); format: tissue-based; settings: applied topically, 6 days
Procedure: Pigmented pig skin was excised from animals (slaughtered for meat production; the pig skin model included the subcutis fat layer as described in EP 1 939 27), cut into 4×4×3 mm pieces (length×width×height) and placed in culture at the air-liquid interface on a sterilized cotton pad soaked with 5 ml of customized DMEM (Dulbecco's Modified Eagle Medium). Assays were started 24 h after sample acclimatization at 37° C., 5% CO2. O/W emulsions (as described in more detail below) without (=control) and with the test compounds, respectively, were applied topically and incubated for 6 days. Histological sections were prepared and melanin granules stained by Fontana-Masson technique. The granules were quantified by image analysis.
The O/W emulsions used had the following composition:
Phases A and B are heated to 70° C. separately. Pemulen TR1 as well as Ultrez-21 are dispersed in phase B when heated to 70° C. Phase B/C is added to phase A by mixing with an Ultra Turrax, followed by emulsifying. Phase D is slowly added to phase A/B/C using a paddle mixer and a pH 5.5-6 is adjusted. The formulation is cooled down while mixing with a paddle mixer. Phase E is prepared by dissolving one or more compounds of formula (I) in Hydrolite-5. Subsequently, phase E is added to the mixture of phase A-D.

[2] = B16V cells, 0.3 mM tyrosine and 10 nM α-MSH, 96 h incubation, absorption at 400 nm

IC50 [1, 2] [µM] | Compound | other results
40.9 | C=C(C)C1CCC(C)CC1OC(=O)NCC (centres unmarked) [BIO1551, Ethyl-carbamic acid 2-isopropenyl-5-methyl-cyclohexyl ester] | –
32.7 | CCNC(=O)OC1CC(C)CC(C)C1 (centres unmarked) [BIO1561, Ethyl-carbamic acid 3,5-dimethyl-cyclohexyl ester] | Melanin score vs. Control (Pigmented pig skin; 1 wt.% in O/W emulsion): −26%
– | CCNC(=O)OC1CC(C)CC(C)(C)C1 (centres unmarked) [BIO1572, Ethyl-carbamic acid 3,3,5-trimethyl-cyclohexyl ester] | IC50 ([1]; 96 h): 63.1 µM
– | CCNC(=O)OC1CC2CCC1(C)C2(C)C (centres unmarked) [BIO1573, Ethyl-carbamic acid 1,7,7-trimethyl-bicyclo[2.2.1]hept-2-yl ester] | IC50 ([1]; 96 h): 74.9 µM
– | COCCCNC(=O)OC1CC(C)CC(C)(C)C1 (centres unmarked) [BIO1574, (3-Methoxy-propyl)-carbamic acid 3,3,5-trimethyl-cyclohexyl ester] | IC50 ([1]; 96 h): 9.5 µM
43 | C=C(C)C1CCC(C)CC1OC(=O)NCCCC (centres unmarked) [BIO1615, Butyl-carbamic acid 2-isopropenyl-5-methyl-cyclohexyl ester] | –
10.9 | CCCCNC(=O)OC1CC(C)CC(C)(C)C1 (centres unmarked) [BIO1616, n-Butyl-carbamic acid 3,3,5-trimethyl-cyclohexyl ester] | –
15.4 | CCCCNC(=O)OC1C(C)CCC(C)C1C (centres unmarked) [BIO1617, n-Butyl-carbamic acid 2,3,6-trimethyl-cyclohexyl ester] | –
5.6 | CC1CC(OC(=O)Nc2ccccc2O)CC(C)(C)C1 (centres unmarked) [BIO1642, (2-Hydroxy-phenyl)-carbamic acid 3,3,5-trimethyl-cyclohexyl ester] | –
0.7 | CC1CCCC(OC(=O)Nc2ccccc2O)C1C (centres unmarked) [BIO1643, (2-Hydroxy-phenyl)-carbamic acid 2,3-dimethyl-cyclohexyl ester] | Melanin score vs. Control (Pigmented pig skin; 0.5 wt.% in O/W emulsion): −26%
4.7 | CC(C)C1CCCCC1OC(=O)Nc1ccccc1O (centres unmarked) [BIO1646, (2-Hydroxy-phenyl)-carbamic acid 2-isopropyl-cyclohexyl ester] | –
18.9 | CC1CC(C)CC(OC(=O)Nc2ccccc2)C1 (centres unmarked) [BIO1685, Phenyl-carbamic acid 3,5-dimethyl-cyclohexyl ester] | –
10.9 | CC1CCCCC1NC(=O)OC1CCC(C(C)(C)C)CC1 (centres unmarked) [BIO1690, (2-Methyl-cyclohexyl)-carbamic acid 4-tert-butyl-cyclohexyl ester] | –
41.7 | CCN(CC)C(=O)OC1C(C)CCC(C)C1C (centres unmarked) [BIO1692, Diethyl-carbamic acid 2,3,6-trimethyl-cyclohexyl ester] | –
38.5 | CCN(CC)C(=O)OC1CCCCC1C(C)C (centres unmarked) [BIO1694, Diethyl-carbamic acid 2-isopropyl-cyclohexyl ester] | –
10.2 | COc1ccccc1NC(=O)OC1C(C)CCC(C)C1C (centres unmarked) [BIO1701, (2-Methoxy-phenyl)-carbamic acid 2,3,6-trimethyl-cyclohexyl ester] | –
25.1 | COc1ccccc1NC(=O)OC1CC(C)CC(C)(C)C1 (centres unmarked) [BIO1703, (2-Methoxy-phenyl)-carbamic acid 3,3,5-trimethyl-cyclohexyl ester] | Melanin score vs. Control (Pigmented pig skin; 0.5 wt.% in O/W emulsion): −37%
12.7 | CCCC1CCC(OC(=O)NCCCC(OCC)OCC)CC1 (centres unmarked) [BIO1707, (4,4-Diethoxy-butyl)-carbamic acid 4-propyl-cyclohexyl ester] | –
5.5 | CC(C)(C)C1CCCCC1OC(=O)Nc1ccccc1 (centres unmarked) [BIO1740, Phenyl-carbamic acid 2-tert-butyl-cyclohexyl ester] | –
12.9 | O=C(Nc1ccccc1)OC1CCCCC1 [BIO1741, Phenyl-carbamic acid cyclohexyl ester] | Melanin score vs. Control (Pigmented pig skin; 1 wt.% in O/W emulsion): −28%
18.3 | COc1ccccc1NC(=O)OC1CCCCC1C(C)C (centres unmarked) [BIO1744, (2-Methoxy-phenyl)-carbamic acid 2-isopropyl-cyclohexyl ester] | –
52.5 | Cc1ccc(NC(=O)OC2CC(C)CC(C)C2)cc1 (centres unmarked) [BIO1822, p-Tolyl-carbamic acid 3,5-dimethyl-cyclohexyl ester] | –
4.7 | Cc1ccc(NC(=O)OC2CCCCC2C(C)C)cc1 (centres unmarked) [BIO1824, p-Tolyl-carbamic acid 2-isopropyl-cyclohexyl ester] | Melanin score vs. Control (Pigmented pig skin; 1 wt.% in O/W emulsion): −44%
72.5 | Cc1ccc(NC(=O)OC2CCCC(C)C2)cc1 (centres unmarked) [BIO1825, p-Tolyl-carbamic acid 3-methyl-cyclohexyl ester] | –
89.5 | CCCCNC(=O)OC1CC(C)CC(C)C1 (centres unmarked) [BIO1840, n-Butyl-carbamic acid 3,5-dimethyl-cyclohexyl ester] | –
28.5 | CCCCNC(=O)OC1CCCCC1C(C)C (centres unmarked) [BIO1841, Butyl-carbamic acid 2-isopropyl-cyclohexyl ester] | –
94.1 | CCCCNC(=O)OC1CCCC(C)C1C (centres unmarked) [BIO1842, Butyl-carbamic acid 2,3-dimethyl-cyclohexyl ester] | –
219 | CCC(C)NC(=O)OC1CC(C)CC(C)(C)C1 (centres unmarked) [BIO1844, sec-Butyl-carbamic acid 3,3,5-trimethyl-cyclohexyl ester] | –
14.3 | CCCCCCNC(=O)OC1CC(C)CC(C)(C)C1 (centres unmarked) [BIO1850, n-Hexyl-carbamic acid 3,3,5-trimethyl-cyclohexyl ester] | –
67 | OC[C@H]1O[C@@H](Oc2ccc(O)cc2)[C@H](O)[C@@H](O)[C@@H]1O [beta-Arbutin, reference compound] | –
